Test results from patent US20250161310A1, “PHARMACEUTICAL COMBINATIONS FOR USE IN THE TREATMENT OF NEOPLASTIC DISEASES” (priority 2022, published 2025).
Where two headings read alike, the source gives them in different places. Marks after values point to notes of the source that are not given here.

How the values were obtained:
[1] = tested on: other kinases; experiment: kinase specificity, other kinases versus TTK; format: biochemical
[2] = target: T1, TTK kinase domain (amino acids 519-808) (Homo sapiens, UniProt P33981); experiment: target residence time assay (Biacore T200 surface plasmon resonance), TTK; format: binding; settings: SPR, 22° C.
T1 construct: recombinant expressed TTK kinase domain (amino acids 519-808)
T1 sequence (P33981 519-808): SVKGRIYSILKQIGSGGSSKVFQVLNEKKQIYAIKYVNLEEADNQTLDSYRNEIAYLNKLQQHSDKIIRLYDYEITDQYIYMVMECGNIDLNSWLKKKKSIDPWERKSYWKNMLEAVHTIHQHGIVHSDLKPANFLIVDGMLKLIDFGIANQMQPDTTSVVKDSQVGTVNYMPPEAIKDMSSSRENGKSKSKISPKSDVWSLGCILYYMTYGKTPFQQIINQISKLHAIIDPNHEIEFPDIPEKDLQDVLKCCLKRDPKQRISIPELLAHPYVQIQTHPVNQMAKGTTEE
Method: (§1) The affinity, i.e. the equilibrium dissociation constant (KD) (referred to as residence times), of the compound of formula (I) against TTK and PLK1 were determined using a Biacore T200™ surface plasmon resonance instrument using recombinant expressed TTK kinase domain (amino acids 519-808) or biotinylated PLK1. The immobilization of TTK was performed as described in Maia et al. Annals of Oncology, 2015; 26:2180-2192. The immobilization of biotinylated PLK1 was performed as described in Willemsen-Seegers et al. Journal of Molecular Biology, 2017; 429:574-586. The subsequent single cycle kinetic assays were performed at 22° C. using a compound concentration gradient of […], 10, 31.6 and 100 nM for TTK and 10, 31.6, 100, 316 and 1000 nM for PLK1, a contact time of 100 s and a flow rate of […]. The dissociation period was 1200-1800 s and a correction for an unstable surface using a blank run with buffer was performed.

[3] = target: T2, biotinylated PLK1 (Homo sapiens, UniProt P53350); experiment: target residence time assay (Biacore T200 surface plasmon resonance), PLK1; format: binding; settings: SPR, 22° C.
T2 construct: biotin (biotinylated)
Method: as §1

[4] = target: T3, tumor-derived TTK (Homo sapiens, UniProt P33981); experiment: tumor TTK target occupancy in MDA-MB-231 xenograft-bearing mice; format: in vivo; settings: MDA-MB-231 tumors
T3 construct: from tissue; host or cells: MDA-MB-231 xenograft tumours grown in mice
T3 sequence (P33981 1-857): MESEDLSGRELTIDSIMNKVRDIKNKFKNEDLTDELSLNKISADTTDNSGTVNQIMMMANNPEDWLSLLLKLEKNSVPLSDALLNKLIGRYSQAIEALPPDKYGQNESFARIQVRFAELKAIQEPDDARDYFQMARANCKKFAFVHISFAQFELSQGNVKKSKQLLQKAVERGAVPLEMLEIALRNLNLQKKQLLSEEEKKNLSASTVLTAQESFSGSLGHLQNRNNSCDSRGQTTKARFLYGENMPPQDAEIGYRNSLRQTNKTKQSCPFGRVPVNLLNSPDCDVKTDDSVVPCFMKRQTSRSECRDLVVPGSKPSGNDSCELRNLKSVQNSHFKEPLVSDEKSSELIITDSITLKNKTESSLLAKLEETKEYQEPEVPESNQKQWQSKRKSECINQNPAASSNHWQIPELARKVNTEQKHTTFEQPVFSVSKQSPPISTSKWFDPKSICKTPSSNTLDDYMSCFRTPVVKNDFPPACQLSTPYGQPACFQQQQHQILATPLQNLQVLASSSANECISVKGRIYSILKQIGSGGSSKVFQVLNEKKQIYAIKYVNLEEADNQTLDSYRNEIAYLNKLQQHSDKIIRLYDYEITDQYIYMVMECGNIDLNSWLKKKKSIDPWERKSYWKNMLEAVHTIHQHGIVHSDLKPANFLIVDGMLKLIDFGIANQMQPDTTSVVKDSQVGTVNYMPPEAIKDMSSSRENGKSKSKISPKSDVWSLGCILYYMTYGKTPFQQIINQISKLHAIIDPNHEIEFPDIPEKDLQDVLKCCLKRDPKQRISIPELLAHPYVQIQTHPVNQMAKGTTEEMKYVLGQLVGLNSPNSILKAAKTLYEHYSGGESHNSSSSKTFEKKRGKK
Method: Prolonged TTK target occupancy was also measured in tumors derived from MDA-MB-231 xenograft-bearing mice treated with intermittent i.v. dosing regimen of compound of formula (I). […]

[5] = tested on: 18 different triple negative breast cancer cell lines; experiment: 5-day anti-proliferative screen of 18 triple negative breast cancer cell lines; format: cell-based; settings: 120 h; 5-day screen, 18 TNBC cell lines; read-out: median GI50
Description: (§2) In cellular systems, the compound of formula (I) has high potency against sensitive cells.

[6] = tested on: patient-derived tumor xenografts, including TNBC and hepatocellular cancer (HCC) models; experiment: monotherapy activity against patient-derived tumor xenografts in mice; format: in vivo; settings: data not shown
Description: as §2

[7] = maximum tolerated dose in combination with carboplatin in non-tumor-bearing mice; format: in vivo
Description: Carboplatin is standard of care treatment in a number of tumor indications. To determine the combination effect of the compound of formula (I) and carboplatin, the maximum tolerated dose (MTD) of the compound of formula (I) in combination with an optimal dose of carboplatin was first defined in non-tumor-bearing BALB/c nude mice. […]

[8] = tested on: BR1282 TNBC PDX tumor; experiment: first PDX combination study (carboplatin first), BR1282
Method: In a first PDX study, female BALB/c nude mice (CrownBio) of at least 20 g body weight were subcutaneously (s.c.) inoculated in the right flank with tumor fragments (3*3*3 mm) from stock mice bearing the patient-derived xenograft (PDX) triple negative breast cancer (TNBC) tumor, BR1282. Randomization into 5 different treatment groups (8 mice per group) was made when the mean tumor size was 150-200 mm^3. Mice were dosed intravenously (i.v.) twice weekly (2qw) with the compound of formula (I) (7 mg/kg, i.v., 5 mL/kg) or once weekly (qw) carboplatin (60 mg/kg, i.v., 10 mL/kg) or the combination of these doses, in which the compound of formula (I) was administered after carboplatin using either a 4 h or a 24 h gap, when both compounds were administered on the same day/consecutive days. The fifth group received both vehicles using the time interval of 4 h and all groups were dosed twice via the tail vein. Dosing was delayed by 1 day in any mice showing transient body weight loss of >10% at any time point.
(§3) Carboplatin was purchased from Qilu Pharmaceutical Co. Ltd. as a solution (10 mg/mL in 5% (w/v) glucose in pure water). The compound of formula (I) was supplied as a powder by Basilea Pharmaceutica International Ltd. and was prepared freshly as a solution in Ethanol:PEG400:Citric acid 20 mM, at a ratio of 1:1:8 and at a final pH of 3.7, for immediate administration.
(§4) Body weights and tumor volumes were determined at least twice per week, the latter by measuring two dimensions with calipers and applying the formula “V=(L×W^2)/2”, where V is the tumor volume, and L and W are the tumor length and width re-spectively. […] Mice were also culled if the BWL was determined to be >15% for 3 consecutive days. Any mice with >10% BWL, automatically were dosed on one of the following days, as soon as the BWL returned to <10%. All animal protocols were reviewed and approved by the relevant local committees in China, where the studies were performed.
(§5) The statistical significance of efficacy were determined in two different ways using a) the endpoint on day 10 or day 14 depending on the study when it was necessary to cull the vehicle group because of tumor volume exceeding 1500 mm^3, and b) at the endpoint of day 31 in the first study when exponential curve fits were applied to estimate the rates of tumor growth in the different groups. The degree of an effect was quantified by the delta (A) treated/control ratio (ΔT/C) and the statistical significance of the effect was determined by a one-way analysis of variance (1W-ANOVA) with Holms-Sidak applied post-hoc for multiple determinations, where a p-value of <0.05 was considered statistically significant. In addition, an assessment of the combination effect was made based upon the Clarkes Combination Index (CCI), where the CCI=ΔT/CAB−(ΔT/CA*ΔT/CB) in which A and B are two different compounds and AB the combination thereof, where CCI<−0.1 indicates synergy (or a positive interaction), +0.1 (antagonism, or a negative interaction) and between −0.1 and +0.1 indicates additivity (no interaction); see O'Reilly et al. Anti Cancer Drugs 2011; 22:58-78.

[9] = tested on: BR1282 TNBC PDX tumor; experiment: second PDX combination study (compound of formula (I) first), BR1282
Method: In a second PDX study, the same model was used as for the first study (TNBC BR1282 PDX model), but this time compound of formula (I) (8 mg/kg, i.v., qw, 5 mL/kg) was administered first and carboplatin (60 mg/kg, i.v., qw, 6 mL/kg) second using a 4 h gap between both administrations and compound of formula (I) was provided qw. Consequently, the mice received both compounds on the same day (4 h gap).
as §3, §4, §5

[10] = tested on: SKOV-3 s.c. xenografts; format: in vivo; settings: day 23
Method: The anti-tumor activity of the compound of formula (I) in combination with carboplatin was evaluated in an ovarian cancer model, using human SKOV-3 cells grown as a solid tumor xenograft subcutaneously (s.c.) in nude mice.
The maximum tolerated dose (MTD) of the compound of formula (I) in combination with an optimal dose of carboplatin was defined in non-tumor bearing BALB/c nude mice in the experiments described above. […] Thus, in this study, using a human ovarian cell line derived xenograft (CDX) model, that schedule was applied and compared directly with the same order of administration with a 1 hr or 24 hr gap between compounds. In addition, the twice-weekly schedule was compared with a weekly schedule of 7 mg/kg BAL0891 (a weekly dose well below the MTD for compound of formula (I) monotherapy) using a 4 hr gap. Treatments continued until day 24 and tumor volumes and body weight were monitored until day 51.

T2 sequence (P53350 whole entry): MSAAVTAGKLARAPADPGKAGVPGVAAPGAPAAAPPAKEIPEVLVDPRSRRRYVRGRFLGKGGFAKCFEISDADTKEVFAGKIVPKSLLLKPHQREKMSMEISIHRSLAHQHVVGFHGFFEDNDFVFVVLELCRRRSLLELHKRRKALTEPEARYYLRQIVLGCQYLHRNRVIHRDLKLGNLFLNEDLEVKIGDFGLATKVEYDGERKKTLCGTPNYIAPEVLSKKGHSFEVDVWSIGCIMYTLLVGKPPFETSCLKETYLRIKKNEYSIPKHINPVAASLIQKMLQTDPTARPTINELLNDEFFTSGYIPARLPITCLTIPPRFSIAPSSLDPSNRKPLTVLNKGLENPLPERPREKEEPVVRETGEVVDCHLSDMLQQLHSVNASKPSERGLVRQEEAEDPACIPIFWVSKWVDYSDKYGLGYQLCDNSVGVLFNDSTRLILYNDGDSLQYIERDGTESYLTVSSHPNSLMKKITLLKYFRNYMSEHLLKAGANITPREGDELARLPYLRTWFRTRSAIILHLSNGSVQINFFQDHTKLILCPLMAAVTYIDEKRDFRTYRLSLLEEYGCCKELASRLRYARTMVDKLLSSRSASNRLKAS

Structure (SMILES): COc1cc(N2CCNCC2)ccc1Nc1ncc2c(n1)-n1ccc(C(=O)Nc3c(C)cccc3C)c1CC2 [Compound of formula (I)]
- other kinase IC50s higher than those for TTK [1]: at least 10 fold
- target-residency on TTK [2]: > 12 h
- target-residency on PLK1 [3]: a few minutes
- time TTK completely occupied after last dose ([4]; i.v. twice-weekly, last MTD dose): at least 72 h
- time tumor-derived TTK fully drug-occupied after last administration ([4]; i.v. weekly MTD dosing, repeat experiment): up to 6 days
- GI50 [5]: 35 nM
- activity against patient-derived tumor xenografts [6]: significant activity
- highest tolerated doses of compound of formula (I) in combination with carboplatin ([7]; 2qw i.v., 4 or 24 hours after carboplatin 60 mg/kg qw i.v.): 6 to 7 mg/kg
- tolerability when compound of formula (I) applied first ([7]; 6-8 mg/kg, 24 h gap to carboplatin or 2qw schedule): not tolerated
- tolerated dose of compound of formula (I) when applied before carboplatin ([7]; weekly, carboplatin 60 mg/kg i.v. qw 4 h later): 8 mg/kg
- Efficacy: ΔT/C Day 0 up to Day 31 ([8]; based on mean rate of growth (k), formula (I) 7 mg/kg 2qw i.v., carboplatin 60 mg/kg qw i.v., carboplatin first): 0.41***
- Mean difference of mean rate of growth (k), Vehicle vs. treatment ([8]; comparator Vehicle, day 0 to latest day 31): 0.084
- Efficacy: ΔT/C Day 10 ([8]; mean change in tumor volume, formula (I) 7 mg/kg 2qw i.v., carboplatin 60 mg/kg qw i.v., carboplatin first): 0.58
- Tolerability (Day 10) ΔBW (%) ([8]; mouse, in vivo): 0.5 ± 1.6%
- Tolerability (Day 10) ΔI/C ([8]; mouse, in vivo): 0.96
- Efficacy: ΔT/C Day 0 up to Day 17 ([9]; based on mean rate of growth (k), formula (I) 8 mg/kg qw first, carboplatin 60 mg/kg qw 4 h later): 0.70
- k means, Mean difference, Vehicle vs. treatment ([9]; comparator Vehicle): 0.045
- Δ tumor volume on day 14, Mean difference, Vehicle vs. treatment ([9]; comparator Vehicle): 422.3
- Efficacy: ΔT/C Day 14 ([9]; mean change in tumor volume, formula (I) 8 mg/kg qw i.v. first, carboplatin 60 mg/kg qw i.v. 4 h later): 0.60
- Tolerability (Day 14) ΔBW (%) ([9]; mouse, in vivo): 2.7 ± 2.1%
- Tolerability (Day 14) ΔT/C ([9]; mouse, in vivo): 1.00
- ΔT/C ([10]; monotherapy Formula (I) 7 mg/kg iv qw): 0.69
- ΔT/C ([10]; monotherapy: Formula (I) 7 mg/kg iv 2qw, Carboplatin 60 mg/kg iv qw): 0.64
